The results in this text go back to patent US7169816B2, “4-bromo or 4-iodo phenylamino benzhydroxamic acid derivatives and their use as MEK inhibitors” (Warner-Lambert Company, priority 1997, dated 2007).

For the experiment, the target named is p45MEK (GST-MEK) (Homo sapiens, UniProt Q02750). Nature of the experiment: Cascade assay for inhibitors of the MAP kinase pathway (in vitro). The format is biochemical. The procedure:
Incorporation of ^32P into myelin basic protein (MBP) was assayed in the presence of a glutathione S-transferase fusion protein containing p44MAP kinase (GST-MAPK) and a glutathione S-transferase fusion protein containing p45MEK (GST-MEK). The assay solution contained 20 mM HEPES, pH 7.4, 10 mM MgCl2, 1 mM MnCl2, 1 mM EGTA, 50 μM [γ-^32P]ATP, 10 μg GST-MEK, 0.5 μg GST-MAPK and 40 μg MBP in a final volume of 100 μL. […] Compounds were assessed at 10 μM for ability to inhibit incorporation of ^32P.
To ascertain whether compounds were inhibiting GST-MEK or GST MAPK, two additional protocols were employed. In the first protocol, compounds were added to tubes containing GST-MEK, followed by addition of GST-MAPK, MBP and [γ-^32P]ATP. In the second protocol, compounds were added to tubes containing both GST-MEK and GST-MAPK, followed by MBP and [γ-^32P]ATP.

On to “4-Fluoro-2-(4-iodo-2-methyl-phenylamino)-N-phenylmethoxy-benzamide [Example 77]”, for which half-maximal inhibition (IC50) was put at 0.28 µM.

`Cc1cc(I)ccc1Nc1ccc(Cl)cc1C(=O)NO` [Example 4, 5-Chloro-N-hydroxy-2-(4-iodo-2-methyl-phenylamino)-benzamide] displayed an IC50 of 0.023 µM.

For `Cc1cc(I)ccc1Nc1ccc(Cl)cc1C(=O)N(C)O` [Example 5, 5-Chloro-N-hydroxy-2-(4-iodo-2-methyl-phenylamino)-N-methyl-benzamide], inhibition was half-maximal at 0.566 µM (IC50).

Turning to `Cc1cc(I)ccc1Nc1ccc(Cl)cc1C(=O)NOC1CCCCO1` (stereo not drawn) [Example 6, 5-Chloro-2-(4-iodo-2-methyl-phenylamino)-N-(terahydropyran-2-yloxy)benzamide], it took 0.345 µM to reach half-maximal inhibition (IC50).

`CONC(=O)c1cc(Cl)ccc1Nc1ccc(I)cc1C` [Example 7, 5-Chloro-2-(4-iodo-2-methyl-phenylamino)-N-methoxybenzamide] showed a half-maximal inhibitory concentration (IC50) of 0.221 µM.

Compound `Cc1cc(F)ccc1Nc1cc(F)ccc1C(=O)NO` [Example 8, 4-Fluoro-N-hydroxy-2-(4-fluoro-2-methyl-phenylamino)-benzamide] registered a 50% inhibitory concentration (IC50) of 7.13 µM.

The compound `Cc1ccccc1Nc1cc(F)ccc1C(=O)NO` [Example 9, 4-Fluoro-N-hydroxy-2-(2-methylphenylamino)-benzamide] came in with an IC50 of 0.409 µM.

For `Cc1cc(I)ccc1Nc1cc(F)ccc1C(=O)NOCc1ccccc1` [Example 12, 4-Fluoro-2-(4-iodo-2-methyl-phenylamino)-N-phenylmethoxy-benzamide], 0.826 µM corresponded to half-maximal inhibition (IC50).

As to `CONC(=O)c1ccc(F)cc1Nc1ccc(I)cc1C` [Example 13, 4-Fluoro-2-(4-iodo-2-methyl-phenylamino)-N-methoxy-benzamide], the IC50 came out at 0.243 µM.

In the case of `CONC(=O)c1ccc(F)c(F)c1Nc1ccc(I)cc1C` [Example 14, 3,4-Difluoro-2-(4-iodo-2-methyl-phenylamino)-N-methoxy-benzamide], the IC50 stood at 0.061 µM.

In turn, `CCONC(=O)c1cc(Br)c(F)c(F)c1Nc1ccc(I)cc1C` [Example 17, 5-Bromo-N-ethoxy-3,4-difluoro-2-(4-iodo-2-methyl-phenylamino)-benzamide] displayed an IC50 of 0.014 µM.

`Cc1cc(I)ccc1Nc1cc(F)ccc1C(=O)NOCc1ccoc1` [Example 20, 4-Fluoro-N-(furan-3-ylmethoxy)-2-(4-iodo-2-methyl-phenylamino)-benzamide] came in with an IC50 of 0.042 µM.

`Cc1cc(I)ccc1Nc1c(C(=O)NOCc2ccoc2)ccc(F)c1F` [Example 21, 3,4-Difluoro-N-(furan-3-ylmethoxy)-2-(4-iodo-2-methyl-phenylamino)-benzamide] came in with an IC50 of 0.014 µM.

For the compound `Cc1cc(Br)ccc1Nc1c(C(=O)NOCc2ccoc2)ccc(F)c1F` [Example 22, 2-(4-Bromo-2-methyl-phenylamino)-3,4-difluoro-N-(furan-3-ylmethoxy)-benzamide], the IC50 amounted to 0.137 µM.

For the compound `Cc1cc(I)ccc1Nc1c(C(=O)NOCc2ccoc2)cc(Br)c(F)c1F` [Example 23, 5-Bromo-3,4-difluoro-N-(furan-3-ylmethoxy)-2-(4-iodo-2-methyl-phenylamino)-benzamide], it took 0.016 µM to reach half-maximal inhibition (IC50).

In turn, `CC=CCONC(=O)c1cc(Br)c(F)c(F)c1Nc1ccc(I)cc1C` [Example 24, 5-Bromo-N-(but-2-enyloxy)-3,4-difluoro-2-(4-iodo-2-methyl-phenylamino)-benzamide] had an IC50 of 0.021 µM.

`C#CCONC(=O)c1ccc(F)cc1Nc1ccc(I)cc1C` [Example 25, 4-Fluoro-2-(4-iodo-2-methyl-phenylamino)-N-(prop-2-ynyloxy)-benzamide] came in with an IC50 of 0.102 µM.

Turning to `C#CC(C)ONC(=O)c1ccc(F)c(F)c1Nc1ccc(I)cc1C` (stereo not drawn) [Example 27, 3,4-Difluoro-2-(4-iodo-2-methyl-phenylamino)-N-(1-methyl-prop-2-ynyloxy)-benzamide], the IC50 turned out to be 0.026 µM.

Consider `C#CC(C)ONC(=O)c1ccc(F)c(F)c1Nc1ccc(Br)cc1C` (stereo not drawn) [Example 28, 2-(4-Bromo-2-methyl-phenylamino)-3,4-difluoro-N-(1-methyl-prop-2-ynyloxy)-benzamide], for which the IC50 amounted to 0.728 µM.

For the compound `C#CCCONC(=O)c1ccc(F)c(F)c1Nc1ccc(I)cc1C` [Example 29, N-(But-3-ynyloxy)-3,4-difluoro-2-(4-iodo-2-methyl-phenylamino)-benzamide], the midpoint of inhibition, the IC50, lay at 0.076 µM.

With `C#CCCONC(=O)c1ccc(F)c(F)c1Nc1ccc(Br)cc1C` [Example 30, 2-(4-Bromo-2-methyl-phenylamino)-N-(but-3-ynyloxy)-3,4-difluoro-benzamide], it took 0.971 µM to reach half-maximal inhibition (IC50).

Compound `C#CCCONC(=O)c1cc(Br)c(F)c(F)c1Nc1ccc(I)cc1C` [Example 31, 5-Bromo-N-(but-3-ynyloxy)-3,4-difluoro-2-(4-iodo-2-methyl-phenylamino)-benzamide] gave an IC50 of 0.045 µM.

The compound `Cc1cc(I)ccc1Nc1c(C(=O)NOCC#Cc2ccccc2)ccc(F)c1F` [Example 32, 3,4-Difluoro-2-(4-iodo-2-methyl-phenylamino)-N-(3-phenyl-prop-2-ynyloxy)-benzamide] returned an IC50 of 0.017 µM.

`Cc1cc(Br)ccc1Nc1c(C(=O)NOCC#Cc2ccccc2)ccc(F)c1F` [Example 33, 3,4-Difluoro-2-(4-bromo-2-methyl-phenylamino)-N-(3-phenyl-prop-2-ynyloxy)-benzamide] returned an IC50 of 0.374 µM.

The compound `Cc1cc(I)ccc1Nc1c(C(=O)NOCC#Cc2cccc(F)c2)ccc(F)c1F` [Example 34, 3,4-Difluoro-N-[3-(3-fluoro-phenyl)-prop-2-ynyloxy]-2-(4-iodo-2-methyl-phenylamino)-benzamide] had a half-maximal inhibitory concentration (IC50) of 0.113 µM.

Turning to `Cc1cc(I)ccc1Nc1c(C(=O)NOCC#Cc2ccccc2F)ccc(F)c1F` [Example 36, 3,4-Difluoro-N-[3-(2-fluoro-phenyl)-prop-2-ynyloxy]-2-(4-iodo-2-methyl-phenylamino)-benzamide], the half-inhibitory concentration (IC50) was 0.056 µM.

As to `Cc1cc(I)ccc1Nc1c(C(=O)NOCC#Cc2ccccc2F)cc(Br)c(F)c1F` [Example 37, 5-Bromo-3,4-difluoro-N-[3-(2-fluoro-phenyl)-prop-2-ynyloxy]-2-(4-iodo-2-methyl-phenylamino)-benzamide], 0.002 µM corresponded to half-maximal inhibition (IC50).

As to `CC(C#Cc1ccccc1)=CCONC(=O)c1ccc(F)c(F)c1Nc1ccc(Br)cc1C` [Example 39, 2-(4-Bromo-2-methyl-phenylamino)-3,4-difluoro-N-(3-methyl-5-phenyl-pent-2-en-4-ynyloxy)-benzamide], the IC50 was 0.147 µM.

Compound `CCONC(=O)c1ccc(F)c(F)c1Nc1ccc(I)cc1C` [Example 40, N-Ethoxy-3,4-difluoro-2-(4-iodo-2-methyl-phenylamino)-benzamide] had an IC50 of 0.028 µM.

With `CCONC(=O)c1ccc(F)c(F)c1Nc1ccc(Br)cc1C` [Example 41, 2-(4-Bromo-2-methyl-phenylamino)-N-ethoxy-3,4-difluoro-benzamide], the IC50 was 0.236 µM.

Compound `CCCONC(=O)c1ccc(F)cc1Nc1ccc(I)cc1C` [Example 42, 4-Fluoro-2-(4-iodo-2-methyl-phenylamino)-N-propoxy-benzamide] came in with a concentration for half-maximal inhibition (IC50) of 0.087 µM.

Compound `CCCONC(=O)c1ccc(F)c(F)c1Nc1ccc(I)cc1C` [Example 43, 3,4-Difluoro-2-(4-iodo-2-methyl-phenylamino)-N-propoxy-benzamide] yielded a half-maximal inhibitory concentration (IC50) of 0.04 µM.

Take `CCCONC(=O)c1ccc(F)c(F)c1Nc1ccc(Br)cc1C` [Example 44, 2-(4-Bromo-2-methyl-phenylamino)-3,4-difluoro-N-propoxy-benzamide]: it took 0.475 µM to reach half-maximal inhibition (IC50).

As to `CCCONC(=O)c1cc(Br)c(F)c(F)c1Nc1ccc(I)cc1C` [Example 45, 5-Bromo-3,4-difluoro-2-(4-iodo-2-methyl-phenylamino)-N-propoxy-benzamide], half-maximal inhibition (IC50) required 0.126 µM.

With `Cc1cc(I)ccc1Nc1c(C(=O)NOC(C)C)ccc(F)c1F` [Example 47, 3,4-Difluoro-2-(4-iodo-2-methyl-phenylamino)-N-isopropoxy-benzamide], the midpoint of inhibition, the IC50, lay at 0.087 µM.

`Cc1cc(I)ccc1Nc1c(C(=O)NOC(C)C)cc(Br)c(F)c1F` [Example 49, 5-Bromo-3,4-difluoro-2-(4-iodo-2-methyl-phenylamino)-N-isopropoxy-benzamide] had an IC50 of 0.085 µM.

Compound `Cc1cc(I)ccc1Nc1c(C(=O)NOC2CCC2)ccc(F)c1F` [Example 50, N-Cyclobutyloxy-3,4-difluoro-2-(4-iodo-2-methyl-phenylamino)-benzamide] displayed an IC50 of 0.043 µM.

Turning to `Cc1cc(I)ccc1Nc1c(C(=O)NOC2CCCC2)ccc(F)c1F` [Example 53, N-Cyclopentyloxy-3,4-difluoro-2-(4-iodo-2-methyl-phenylamino)-benzamide], the IC50 came out at 0.14 µM.

In turn, `Cc1cc(I)ccc1Nc1cc(F)ccc1C(=O)NOCC1CC1` [Example 55, N-Cyclopropylmethoxy-4-fluoro-2-(4-iodo-2-methyl-phenylamino)-benzamide] came in with an IC50 of 0.047 µM.

Regarding `Cc1cc(I)ccc1Nc1c(C(=O)NOCC2CC2)ccc(F)c1F` [Example 56, N-Cyclopropylmethoxy-3,4-difluoro-2-(4-iodo-2-methyl-phenylamino)-benzamide], 0.014 µM corresponded to half-maximal inhibition (IC50).

In the case of `Cc1cc(Br)ccc1Nc1c(C(=O)NOCC2CC2)ccc(F)c1F` [Example 57, 2-(4-Bromo-2-methyl-phenylamino)-N-cyclopropylmethoxy-3,4-difluoro-benzamide], it took 0.181 µM to reach half-maximal inhibition (IC50).

In turn, `Cc1cc(I)ccc1Nc1cc(F)ccc1C(=O)NOCCOc1ccccc1` [Example 59, 4-Fluoro-2-(4-iodo-2-methyl-phenylamino)-N-(2-phenoxy-ethoxy)-benzamide] showed an IC50 of 0.259 µM.

For orientation: IC50 means the concentration that gives 50% inhibition. A high value points to lower potency.
